Data published in PubChem BioAssay AID226 (DTP/NCI, 2004).
Several values for one entry are separate records, joined by “and”; a condition that tells them apart may be missing. Equal values may be shown once. Toxic doses and inconclusive results are not listed. The calls were made as follows: active = survival T/C of 150% or more; inactive = T/C below 125% in these data.

Tested on: B6C3F1 mice, intracerebral ependymoblastoma, median survival T/C
Assay: NCI In Vivo Anticancer Drug Screen. Data for tumor model Ependymoblastoma (intracerebral) in B6C3F1 mice
Settings: endpoint: median survival time, higher = longer survival
Method: The antitumor activity of compounds was measured in mice bearing transplantable tumors. Survival or tumor size were measured and the results are expressed as the measurement made in the treated group (T) divided by the measurement made in the vehicle treated control group (C). The tumor model used in this assay is Ependymoblastoma (intracerebral) in B6C3F1 mice

[1] = dose: 16.0 mg/kg/injection, schedule: Q01DX005 (ip), vehicle: saline
[2] = dose: 32.0 mg/kg/injection, schedule: Q01DX005 (ip), vehicle: saline
[3] = dose: 64.0 mg/kg/injection, schedule: Q01DX005 (ip), vehicle: saline
[4] = dose: 128.0 mg/kg/injection, schedule: Q01DX005 (ip), vehicle: saline
[5] = dose: 25.0 mg/kg/injection, schedule: Q01DX005 (ip), vehicle: saline
[6] = dose: 50.0 mg/kg/injection, schedule: Q01DX005 (ip), vehicle: saline
[7] = dose: 100.0 mg/kg/injection, schedule: Q01DX005 (ip), vehicle: saline
[8] = dose: 200.0 mg/kg/injection, schedule: Q01DX005 (ip), vehicle: saline
[9] = dose: 25.0 mg/kg/injection, schedule: Q01DX005 (ip), vehicle: saline with Tween-80
[10] = dose: 50.0 mg/kg/injection, schedule: Q01DX005 (ip), vehicle: saline with Tween-80
[11] = dose: 32.0 mg/kg/injection, schedule: Q01DX005 (ip), vehicle: saline with Tween-80
[12] = dose: 64.0 mg/kg/injection, schedule: Q01DX005 (ip), vehicle: saline with Tween-80
[13] = dose: 128.0 mg/kg/injection, schedule: Q01DX005 (ip), vehicle: saline with Tween-80
[14] = dose: 256.0 mg/kg/injection, schedule: Q01DX005 (ip), vehicle: saline with Tween-80
[15] = dose: 8.0 mg/kg/injection, schedule: Q01DX005 (ip), vehicle: Klucel (hydroxypropylcellulose) (HPC)
[16] = dose: 8.0 mg/kg/injection, schedule: Q01DX005 (ip), vehicle: saline with Tween-80
[17] = dose: 16.0 mg/kg/injection, schedule: Q01DX005 (ip), vehicle: Klucel (hydroxypropylcellulose) (HPC)
[18] = dose: 16.0 mg/kg/injection, schedule: Q01DX005 (ip), vehicle: saline with Tween-80
[19] = dose: 32.0 mg/kg/injection, schedule: Q01DX005 (ip), vehicle: Klucel (hydroxypropylcellulose) (HPC)
[20] = dose: 64.0 mg/kg/injection, schedule: Q01DX005 (ip), vehicle: Klucel (hydroxypropylcellulose) (HPC)
[21] = dose: 128.0 mg/kg/injection, schedule: Q01DX005 (ip), vehicle: Klucel (hydroxypropylcellulose) (HPC)
[22] = dose: 256.0 mg/kg/injection, schedule: Q01DX005 (ip), vehicle: Klucel (hydroxypropylcellulose) (HPC)
[23] = dose: 8.0 mg/kg/injection, schedule: Q01DX005 (ip), vehicle: saline

Measured: T/C

CC(=O)Nc1ccn(C2OC(COC(C)=O)C(OC(C)=O)C2OC(C)=O)c(=O)n1 (stereo not drawn)
inactive: dose: 150.0 mg/kg/injection, schedule: Q01DX005 (ip), vehicle: saline with Tween-80 105 % of control | dose: 300.0 mg/kg/injection, schedule: Q01DX005 (ip), vehicle: saline with Tween-80 112 % of control | dose: 600.0 mg/kg/injection, schedule: Q01DX005 (ip), vehicle: saline with Tween-80 107 % of control | dose: 1200.0 mg/kg/injection, schedule: Q01DX005 (ip), vehicle: saline with Tween-80 120 % of control

Nc1ccn(C2OC(COP(=O)(O)O)C(O)C2O)c(=O)n1 (stereo not drawn)
inactive: [1] 96 % of control | [2] 95 % of control | [3] 107 % of control | [4] 112 % of control

CSCS(=O)C[C@H](CO)NC(=O)/C=C/c1c(C)[nH]c(=O)[nH]c1=O (stereo partly drawn)
inactive: dose: 0.06 mg/kg/injection, schedule: Q01DX005 (ip), vehicle: Klucel (hydroxypropylcellulose) (HPC) 105 % of control | dose: 0.12 mg/kg/injection, schedule: Q01DX001 (ip), vehicle: Klucel (hydroxypropylcellulose) (HPC) 102 % of control and 104 % of control and 107 % of control | dose: 0.12 mg/kg/injection, schedule: Q01DX005 (ip), vehicle: Klucel (hydroxypropylcellulose) (HPC) 100 % of control | dose: 0.25 mg/kg/injection, schedule: Q01DX001 (ip), vehicle: Klucel (hydroxypropylcellulose) (HPC) 101 % of control and 102 % of control and 112 % of control | dose: 0.25 mg/kg/injection, schedule: Q01DX005 (ip), vehicle: Klucel (hydroxypropylcellulose) (HPC) 105 % of control | dose: 0.5 mg/kg/injection, schedule: Q01DX001 (ip), vehicle: Klucel (hydroxypropylcellulose) (HPC) 97 % of control and 103 % of control and 109 % of control | dose: 0.5 mg/kg/injection, schedule: Q01DX005 (ip), vehicle: Klucel (hydroxypropylcellulose) (HPC) 102 % of control | dose: 1.0 mg/kg/injection, schedule: Q01DX001 (ip), vehicle: Klucel (hydroxypropylcellulose) (HPC) 96 % of control and 97 % of control and 102 % of control

COc1c(C)c2c(c(O)c1C/C=C(\C)CCC(=O)O)C(=O)OC2
inactive: dose: 12.5 mg/kg/injection, schedule: Q01DX005 (ip), vehicle: saline 101 % of control | [5] 105 % of control | [6] 100 % of control | [7] 98 % of control | [8] 102 % of control | dose: 400.0 mg/kg/injection, schedule: Q01DX005 (ip), vehicle: saline 98 % of control

CCCCC(=O)OCC1OC(n2cnc3c(=S)nc[nH]c32)C(OC(=O)CCCC)C1OC(=O)CCCC (stereo not drawn)
inactive: [9] 116 % of control | [10] 99 % of control | dose: 100.0 mg/kg/injection, schedule: Q01DX005 (ip), vehicle: saline with Tween-80 103 % of control

O=C(N/N=C\c1cc(Br)cc(Br)c1O)N/N=C/c1cc(Br)cc(Br)c1O
inactive: [11] 109 % of control | [12] 106 % of control | [13] 105 % of control | [14] 106 % of control | dose: 512.0 mg/kg/injection, schedule: Q01DX005 (ip), vehicle: saline with Tween-80 99 % of control

C[C@]12C=CC(=O)C=C1CC[C@@H]1[C@@H]2CC[C@]2(C)OC(=O)CC[C@@H]12
inactive: [15] 98 % of control and 100 % of control | [16] 100 % of control and 113 % of control | [17] 101 % of control and 106 % of control | [18] 97 % of control and 110 % of control | [19] 94 % of control and 95 % of control | [11] 97 % of control and 105 % of control | [20] 98 % of control and 101 % of control | [12] 97 % of control and 105 % of control | [21] 96 % of control and 86 % of control | [13] 96 % of control and 108 % of control | [22] 90 % of control | [14] 105 % of control

Nc1ncnc2nc[nH]c12
inactive: dose: 4.0 mg/kg/injection, schedule: Q01DX005 (ip), vehicle: saline with Tween-80 106 % of control and 113 % of control | [16] 100 % of control and 114 % of control | [18] 107 % of control and 118 % of control | [11] 101 % of control and 102 % of control | [20] 108 % of control | [12] 100 % of control and 117 % of control | [21] 107 % of control | [22] 96 % of control

CC(=O)O[C@]1(C(C)=O)CC[C@H]2[C@@H]3C[C@H](C)C4=CC(=O)CC[C@]4(C)[C@H]3CC[C@@]21C
inactive: [15] 96 % of control and 104 % of control | [17] 101 % of control and 122 % of control | [19] 101 % of control and 112 % of control | [20] 92 % of control and 97 % of control | [21] 95 % of control and 98 % of control | [22] 94 % of control and 97 % of control

COc1ccc(C[C@H](N)C(=O)NC2C(CO)OC(n3cnc4c(N(C)C)ncnc43)C2O)cc1 (stereo partly drawn)
inactive: [23] 101 % of control | [1] 101 % of control | [2] 103 % of control | [3] 94 % of control | [4] 102 % of control

C(COCCOCC1CO1)OCCOCC1CO1 (stereo not drawn)
inactive: [5] 100 % of control and 118 % of control | [6] 97 % of control and 121 % of control | [7] 97 % of control and 100 % of control | [8] 105 % of control

CN=NNc1nc[nH]c1C(N)=O
inactive: [23] 99 % of control | [1] 106 % of control | [2] 110 % of control | [3] 123 % of control

NC(=S)Nc1cccc2ccccc12
inactive: dose: 1.56 mg/kg/injection, schedule: Q01DX005 (ip), vehicle: saline with Tween-80 92 % of control | dose: 3.12 mg/kg/injection, schedule: Q01DX005 (ip), vehicle: saline with Tween-80 100 % of control and 88 % of control | dose: 6.25 mg/kg/injection, schedule: Q01DX005 (ip), vehicle: saline with Tween-80 92 % of control and 93 % of control | dose: 12.5 mg/kg/injection, schedule: Q01DX005 (ip), vehicle: saline with Tween-80 91 % of control | [9] 88 % of control and 89 % of control | [10] 91 % of control

CCN(CC)CCOc1ccc(/C(=C(\Cl)c2ccccc2)c2ccccc2)cc1
inactive: [23] 101 % of control and 106 % of control | [1] 93 % of control and 100 % of control | [2] 92 % of control and 103 % of control | [3] 101 % of control and 104 % of control

Nc1nncs1
inactive: dose: 6.25 mg/kg/injection, schedule: Q01DX009 (ip), vehicle: saline 91 % of control | dose: 12.5 mg/kg/injection, schedule: Q01DX009 (ip), vehicle: saline 96 % of control | dose: 25.0 mg/kg/injection, schedule: Q01DX009 (ip), vehicle: saline 102 % of control | dose: 50.0 mg/kg/injection, schedule: Q01DX009 (ip), vehicle: saline 115 % of control | [12] 110 % of control | dose: 100.0 mg/kg/injection, schedule: Q01DX009 (ip), vehicle: saline 107 % of control

COc1nc(C(Cl)(Cl)Cl)c(Cl)c(OC)c1Cl
inactive: dose: 25.0 mg/kg/injection, schedule: Q01DX005 (ip), vehicle: Klucel (hydroxypropylcellulose) (HPC) 94 % of control | dose: 50.0 mg/kg/injection, schedule: Q01DX005 (ip), vehicle: Klucel (hydroxypropylcellulose) (HPC) 107 % of control | dose: 100.0 mg/kg/injection, schedule: Q01DX005 (ip), vehicle: Klucel (hydroxypropylcellulose) (HPC) 114 % of control
